The results in this text go back to patent US10179761B2, “Compounds, pharmaceutical composition and their use in treating neurodegenerative diseases” (UNIVERSITE DE LILLE 2 DROIT ET SANTE, priority 2014, dated 2019).

“And” between values parts separate entries of the source, which are not always exact repeats. Identical values can stand only once. Like-named read-outs stand apart in the source and are kept apart here.

Broadly, the Ki is the dissociation constant of the complex between target and ligand, obtained from inhibition or displacement.

For assay [1], the target named is T1, σ1 receptors (Homo sapiens (Human), UniProt Q99720). The assay is described as follows: σ1 binding assay, Jurkat cell membranes, [3H](+)-pentazocine. The settings on record: hydrochloride salts; mean of 2 or 3 independent experiments; Ki from IC50 (Cheng-Prusoff); read-out: Sigma 1 Ki.
Assay [2] addresses T1, σ1 receptors. The assay is described as above. The conditions noted are these: selectivity, Ki sigma 2 / Ki sigma 1. The procedure: (§1) The σ binding assays were performed according to Ganapathy et al. (Ganapathy, M. E.; Prasad, P. D.; Huang, W.; Seth, P.; Leibach, F. H.; Ganapathy, V. Molecular and ligand-binding characterization of the sigma-receptor in the Jurkat human T lymphocyte cell line. J. Pharmacol. Exp. Ther. 1999, 289, 251-260). […] The σ2 binding assay was performed by incubating Jurkat cell membranes ([…] protein per tube) with [^3H]-DTG (25 nM) in presence of (+)-pentazocine (1 μM) to saturate σ1 receptors, and a range of concentrations of tested compounds, at room temperature for 1 hour in 5 mM Tris/HCl buffer (pH=7.4). The final assay volume was 0.5 mL. Binding was terminated by rapid filtration through Wathman GF/B filters, which were then washed with 5×1 mL ice-cold NaCl solution and allowed to dry before bound radioactivity was measured using liquid scintillation counting. Nonspecific binding was determined, in both assays, under similar conditions, but in presence of 10 μM unlabeled haloperidol. Inhibition constants (Ki) were calculated from the IC50 values according to the method of Cheng and Prusoff (Cheng, Y.; Prusoff, W. H. Relationship between the inhibition constant (Ki) and the concentration of inhibitor which causes 50 percent inhibition (IC50) of an enzymatic reaction. Biochem Pharmacol. 1973, 22 (23), 3099-108): […]

A further assay has as its target σ2 receptors (Homo sapiens (Human), UniProt Q5BJF2). The assay is described as follows: σ2 binding assay, Jurkat cell membranes, [3H]-DTG in presence of (+)-pentazocine. The conditions noted are these: read-out: Sigma 2 Ki. The procedure: as §1
For assay [3], the system named is Male Swiss mice. The assay is described as follows: Dizocilpine-induced learning deficits: spontaneous alternation in the Y-maze. Format: in vivo. The settings on record: NE-100 3 mg/kg + dizocilpine 0.15 mg/kg i.p. The procedure: (§2) The activity of compound 3.1.10 was evaluated on the prevention of the dizocilpine-induced learning deficits measured using two behavioral tests. The present experiment tested if its anti-amnesic activity could be blocked by pretreatment with the reference sigma-1 receptor antagonist NE-100.
(§3) • Sixty (60) mice were used. Behavioral testing started one week after the arrival of the animals in the AMYLGEN animal facility. • 5 treatment groups were designed and used as follows:
(§4) • Vehicle 1 was physiological saline for dizocilpine, DMSO 2% in water for compound 3.1.10 • Animals were used at day 1 in the Y-maze test and at days 2 and 3 in the passive avoidance test, with training at day 2 and retention at day 3. • Test compounds, compound 3.1.10 and/or NE-100 were administered 10 min before dizocilpine (at 0.15 mg/kg i.p.) or vehicle. • Dizocilpine or vehicle 1 was administered 20 min before the Y-maze test session on day 1. • Dizocilpine or vehicle 1 was administered 20 min before the passive avoidance training session on day 2. Drugs were not injected before the retention session on day 3. • The whole experiment program was performed in a single serie experiment. • Treatments were randomized. 2.1.2. Animals
Male Swiss mice, 6 weeks old and weighing 30-35 g, from JANVIER (Saint Berthevin, France), were housed in groups with access to food and water ad libitum, except during experiments. They were kept in a temperature and humidity controlled animal facility on a 12 h/12 h light:dark cycle (lights on at 7:00 am). […]
Animals were tested for spontaneous alternation performance in the Y-maze, an index of spatial working memory. […] The number of maximum alternations was therefore the total number of arm entries minus two and the percentage of alternation was calculated as: (actual alternations/maximum alternations)×100. […]
All values, except passive avoidance latencies, were expressed as mean±S.E.M. Statistical analyses were performed using two-way ANOVA (F value), with genotype and peptide treatment as independent factors, followed by a Dunn's post-hoc multiple comparison test.

The subject of assay [4] is Male Swiss mice. The assay is described as follows: Dizocilpine-induced learning deficits: step-through passive avoidance test. The conditions noted are these: NE-100 3 mg/kg + dizocilpine 0.15 mg/kg i.p. Format: in vivo. The procedure: as §2, §3, §4
Male Swiss mice, 6 weeks old and weighing 30-35 g, from JANVIER (Saint Berthevin, France), were housed in groups with access to food and water ad libitum, except during experiments. […]
The apparatus is a two-compartments (15×20×15 cm high) box with one illuminated with white polyvinylchloride walls and the other darkened with black polyvinylchloride walls and a grid floor. […] The step-through latency (the latency spent to enter the dark compartment) and the number of vocalizations was recorded. […] The step-through latency was recorded up to 300 s. When the mouse entered the dark compartment or 300 s has elapsed (they were therefore manually placed in it), the escape latency (latency to exit from the dark compartment) was recorded up to 300 s.
They were therefore analyzed using a Kruskal-Wallis non-parametric ANOVA (H value), followed by a Dunn's multiple comparison test.

Setting [5] is: hydrochloride salts, mean of 2 or 3 independent experiments, Ki from IC50 (Cheng-Prusoff).

σ2 receptors, sequence (Q5BJF2 whole entry): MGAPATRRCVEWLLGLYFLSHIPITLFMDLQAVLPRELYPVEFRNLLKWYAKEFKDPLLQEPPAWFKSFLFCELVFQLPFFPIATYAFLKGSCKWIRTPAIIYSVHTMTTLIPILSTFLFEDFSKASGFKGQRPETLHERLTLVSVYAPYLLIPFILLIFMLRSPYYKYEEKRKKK
T1 sequence (Q99720 whole entry): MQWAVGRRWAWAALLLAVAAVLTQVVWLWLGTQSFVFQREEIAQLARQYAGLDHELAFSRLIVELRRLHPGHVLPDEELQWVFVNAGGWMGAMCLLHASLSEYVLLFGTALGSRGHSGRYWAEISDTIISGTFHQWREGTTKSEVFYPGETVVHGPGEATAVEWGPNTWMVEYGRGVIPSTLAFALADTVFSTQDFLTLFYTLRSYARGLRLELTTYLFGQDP

As to `CN(CCCNC(=O)c1ccc(Br)cc1F)Cc1ccccc1` [Compound 3.1.27, N-[3-(benzylmethylamino)propyl]-4-bromo-2-fluorobenzamide], the Ki on σ1 receptors [1] was 2.9 nM.

For the compound `CN(CCC(=O)NCc1ccc(Cl)cc1)Cc1ccccc1` [Compound 3.4a, N-(4-chlorobenzyl)-3-(benzylmethylamino)propanamide], the “Ratio σ2/σ1” value on σ1 receptors [2] came out at 241. In addition, the Ki was determined as 410 nM on σ2 receptors and 1.7 nM at σ1 receptors [1].

Consider `CN(CCC(=O)NCc1cccc(Cl)c1)Cc1ccccc1` [Compound 3.4e, N-(3-Chlorobenzyl)-3-(benzylmethylamino)propanamide], for which the “Ratio σ2/σ1” value at σ1 receptors [2] came out at 317. In addition, the Ki was found to be 200 nM at σ2 receptors and 0.63 nM on σ1 receptors [1].

For `CN(CCNC(=O)c1ccc(C#N)cc1)Cc1ccccc1` [Compound 3.1.36, N-(2-(benzyl(methyl)amino)ethyl)-4-cyanobenzamide], the Ki on σ2 receptors (setting [5]) is 170 nM; on σ1 receptors [1], 1.2 nM.

As for `CCCN(CCC)CCc1ccc(OC)c(OCCc2ccccc2)c1.Cl` [NE-100, reference compound], the “effect of NE-100 by itself on dizocilpine-induced deficits, Y-maze test” value in the assay with Male Swiss mice [3] is given as “devoid of effect by itself”. The “effect of NE-100 by itself on dizocilpine-induced deficits, passive avoidance test” value in the assay with Male Swiss mice [4] is “devoid of effect by itself”.

For `CN(CCC(=O)NCc1ccc(Cl)cc1Cl)Cc1ccccc1` [Compound 3.4d, N-(2,4-Dichlorobenzyl)-3-(benzylmethylamino)propanamide], the “Ratio σ2/σ1” value at σ1 receptors [2] came to 52. Besides, the values for the inhibitory constant (Ki) on σ2 receptors and at σ1 receptors [1] were 120 nM and 2.3 nM, respectively.

On to `CN(CCCNC(=O)c1ccc(Cl)cc1Cl)Cc1ccccc1` [Compound 3.1.24, N-[3-(benzylmethylamino)propyl]-2,4-dichlorobenzamide], for which the “Ratio σ2/σ1” value at σ1 receptors [2] turned out to be 238. The Ki is 310 nM on σ2 receptors (setting [5]); 1.3 to 3.6 nM and 1.3 nM at σ1 receptors [1].

For `CN(CCCNC(=O)c1cccc(Cl)c1)Cc1ccccc1` [Compound 3.1.8, N-[3-(benzylmethylamino)propyl]-3-chlorobenzamide], the “Ratio σ2/σ1” value on σ1 receptors [2] was 34. Besides, the Ki at σ2 receptors (setting [5]) was determined as 340 nM; at σ1 receptors [1] it was 10 nM.

In the case of `O=C(NCCCNCN1Cc2ccccc2C1)c1ccc(Cl)cc1` [Compound 3.1.15], the inhibition constant (Ki) on σ1 receptors [1] stood at 19 nM.

As to `CN(CCCNC(=O)c1ccc(F)cc1)Cc1ccccc1` [Compound 3.1.6, N-[3-(benzylmethylamino)propyl]-4-fluorobenzamide], at σ1 receptors [2], the “Ratio σ2/σ1” value worked out at 24. Besides, the Ki came to 470 nM at σ2 receptors (setting [5]) and 20 nM at σ1 receptors [1].

As for `CN(CCNC(=O)c1ccc(Cl)cc1)Cc1ccccc1` [Compound 3.1.9, N-[3-(2-(N-methylbenzyl)amino)ethyl]-4-chlorobenzamide], at σ2 receptors (setting [5]), the Ki came out at 850 nM.

With `CN(CCCNC(=O)c1cccc(Br)c1)Cc1ccccc1` [Compound 3.1.21, N-[3-(benzylmethylamino)propyl]-3-bromobenzamide], on σ1 receptors [2], the “Ratio σ2/σ1” value is reported as 90. In addition, the results for the Ki on σ2 receptors (setting [5]) and at σ1 receptors [1] were 350 nM and 3.9 nM, respectively.

Turning to `CN(CCNC(=O)c1ccc(Cl)cc1Cl)Cc1ccccc1` [Compound 3.1.34, N-(2-(benzyl(methyl)amino)ethyl)-2,4-dichlorobenzamide], at σ1 receptors [2], the “Ratio σ2/σ1” value was 17. The inhibitory constant (Ki) at σ2 receptors (setting [5]) turned out to be 110 nM; on σ1 receptors [1] it was 6.5 nM.

Regarding `CN(CCCNC(=O)c1cc(Cl)cc(Cl)c1)Cc1ccccc1` [Compound 3.1.26, N-[3-(benzylmethylamino)propyl]-3,5-dichlorobenzamide], the “Ratio σ2/σ1” value on σ1 receptors [2] came to 2. Further, the Ki on σ2 receptors (setting [5]) amounted to 48 nM; on σ1 receptors [1], 23 nM.

Turning to `CN(CCNC(=O)c1ccc([N+](=O)[O-])cc1)Cc1ccccc1` [Compound 3.1.37, N-(2-(benzyl(methyl)amino)ethyl)-4-nitrobenzamide], the Ki at σ2 receptors (setting [5]) came out at 1400 nM; at σ1 receptors [1] it was 3.6 nM.

For `CN(CCC(=O)NCc1ccc([N+](=O)[O-])cc1)Cc1ccccc1` [Compound 3.4b, N-(4-Nitrobenzyl)-3-(benzylmethylamino)propanamide], the Ki on σ2 receptors is 6500 nM; on σ1 receptors [1], 1.3 to 3.6 nM and 2.3 nM.

`CN(CCC(=O)NCc1ccc(C#N)cc1)Cc1ccccc1` [Compound 3.4c, N-(4-Cyanobenzyl)-3-(benzylmethylamino)propanamide]: the “Ratio σ2/σ1” value at σ1 receptors [2] is recorded as 321. In addition, the Ki at σ2 receptors amounted to 1800 nM; at σ1 receptors [1], 5.6 nM.

For `CN(CCCNC(=O)c1ccc(Cl)cc1)CCc1ccccc1` [Compound 3.1.12, N-[3-(N-methyl-2-phenylethylamino)propyl]-4-chlorobenzamide], the “Ratio σ2/σ1” value at σ1 receptors [2] was 47. The inhibition constant (Ki) came out at 200 nM at σ2 receptors (setting [5]) and 4.3 nM on σ1 receptors [1].
